A short description of the data set: Dye solubility in deionised water. Format: physicochemical. As to conditions: for solubility (in words): assessment of state-of-the-art dyes in the background section. As for the experimental part: An excess of dye was vigorously stirred in deionised water for 1 hour at a temperature of 50° C. The mixture was then cooled down to a temperature of 20° C. and filtered. Dye solubility was determined spectroscopically in the clear filtered solution.

On to `Nc1ccc2cc(S(=O)(=O)[O-])cc(O)c2c1N=Nc1cc(NC(=O)CCC(=O)[O-])ccc1S(=O)(=O)[O-].[Na+].[Na+].[Na+]` [Compound 120], for which the “solubility in comparison to the known dye Acid Red 37” value (comparison drawn from Table 3) is on record as “significantly higher”. For the compound `Nc1ccc2cc(S(=O)(=O)[O-])cc(O)c2c1N=Nc1ccc(Nc2nc(NCCS(=O)(=O)[O-])nc(NCCS(=O)(=O)[O-])n2)cc1S(=O)(=O)[O-].[Na+].[Na+].[Na+].[Na+]` [II], the “solubility (in words)” value is “high solubility”. Turning to Acid Red 37, the “solubility (in words)” value is “not sufficient”. Besides, under “excess dye stirred in deionised water 1 hour at 50° C., cooled to 20° C., filtered, determined spectroscopically”, the “Solubility (in g per 100 ml of water)” value is given as 5 g per 100 ml of water.

For the origin of these results see patent US6562115B2, “Azo dyes and their preparation and use” (Ilford Imaging Switzerland GmbH, priority 2000, dated 2003).
